Test results reported in US20200179510A1, “LOW DENSITY LIPOPROTEIN RECEPTOR RELATED PROTEIN 5 INHIBITION SUPPRESSES TUMOR FORMATION” (YALE UNIVERSITY, priority 2017, published 2020).

Key:
primary mouse NK cells = test: IL-15-cultured primary mouse NK cells (flow cytometry, Western); assay type: cell-based; details: for granzyme B in primary NK cells: WNT3a 2 nM, CHIR 1 μM
Experimental: Cells in single cell suspension were fixed with 2% PFA (Santa-Cruz sc-281692). After washing with a Flow Cytometry Staining Buffer (eBioscience 00-4222-26), cells were stained with antibodies for cell surface markers for 1 hour on ice in the dark. For staining of intracellular proteins, the cells were washed and resuspended in the Permeabilization Buffer (BD 554723) and stained by antibodies in the Permeabilization Buffer for 1 hour on ice in the dark. The cells were then pelleted and resuspended in the Flow Cytometry Staining Buffer for flow cytometry analysis.
Mouse primary NK and CD8+ T cells were isolated from the spleens by using the NK cell and CD8+ T cell isolation kits according to the manufacturer's instructions (Miltenyi Biotec #130-090-864 and #130-104-075), respectively. Primary NK cells were cultured in RPMI-1640 (Gibco, 11875-093) supplemented with 10% FBS, penicillin (100 U/ml), streptomycin (100 μg/ml), 2-mercaptoethanol (500 μM) and HEPES (10 mM) at 37° C. supplemented with 5% CO2 in the presence of recombinant murine IL-15 (50 ng/ml) for 24 hours before treatment with DKK2, CHIR99021, or WNT3A. CD8+ T cells were cultured in the same culture medium and condition as NK cells, but supplemented with IL-15 (200 ng/ml) and IL-15 Rα (1 μg/ml recombinant Mouse IL-15 receptor alpha Fc chimera Protein from R&D) for 96 hours before DKK2 treatment. Mouse primary intraepithelial lymphocytes (IELs) were prepared as described in (Little et al., The Journal of Immunology 175, 6713-6722 (2005) and Li et al. Infect Immun 80, 565-574 (2012)). In brief, the small intestine was everted, divided into four pieces, and washed twice in phosphate-buffered saline (PBS) containing 100 U/ml penicillin/streptomycin The specimens were then incubated with stirring at 37° C. in prewarmed Ca2+ and Mg2+-free Hanks' solution containing 100 U/ml penicillin-streptomycin, 5% fetal calf serum (FCS), 2 mM dithiothreitol (DTT), and 5 mM EDTA for 30 min, followed by vigorous shaking for 30 s. The supernatants were passed over two nylon wool columns to remove undigested tissue debris. The lymphocytes obtained were pooled and enriched on a discontinuous (40% and 70%) Percoll density gradient. Cells at the interface between the 40% and […], fractions (IELs) were collected for treatment with IL-15 (200 ng/ml) and DKK2 (200 ng/ml), followed by flow analysis.

[1] = tested on: Wnt reporter gene TOPFlash; test: Wnt reporter gene (TOPFlash) assay in HEK293 cells; assay type: cell-based; details: for Wnt reporter gene activity: DKK2 5 nM, Wnt3a 2 nM, CHIR 1 μM, 6 hrs (FIG. 10D)
Experimental: The Stat5 reporter assays were done in HEK293T cells for activated JAK1-induced activity or in those stably expressing JAK3, IL2/15Rβ and the common receptor γ subunit for IL15 induced activity. Cells were seeded at 8×10^4 cells per well in 48 well plate. The next day, cells were transfected by Lipofectamine 2000 (Invitrogen) with the pGL4.52-STAT5-Luciferase (Promega) and tagRFP (internal control) plasmids together with other plasmids expressing genes of interest. The total amount of plasmid was kept at 125 ng per well. The cells were added 24 hours after transfection with IL15/IL15Rα-Fc complex or mock. Six hours later, the cells were lysed and subjected to RFP fluorescence and luciferase luminescence measurement using an Envision Multilabel plate reader. The reporter gene activity is shown after being normalized against RFP readings. The LEF reporter assay was carried out in HEK293 cells that were transfected with the TOPFlash and GFP plasmids. The rest is the same as above. The reporter gene activity is shown after being normalized against GFP readings.
A functional mouse monoclonal anti-DKK2 antibody (5F8) was developed to specifically target and neutralize DKK2, but to not cross react with DKK-1. […] It has been shown that DKK2 as well as other DKK family proteins, inhibit canonical Wnt signaling by binding to Wnt co-receptor LRP 5/6 with high affinity and competing with Wnt molecules for receptor binding (MacDonald, B., et al., Dev Cell, 2009. 17(1): p. 9-26; Bao, J., et al., Sci Signal, 2012. 5(224): pe22). To determine if 5F8 diminished DKK2 inhibition of Wnt signaling, a Wnt reporter gene assay was used to measure Wnt activity. HEK293 cells were transfected with Wnt reporter gene TOPFlash and Wnt reporter activity was examined.

Row | Compound | granzyme B in primary NK cells (primary mouse NK cells; 24 hours) | Wnt reporter gene activity [1] | β-catenin accumulation in LRP5-deficient NK cells (primary mouse NK cells; LRP5-deficiency) | β-catenin accumulation in LRP6-deficient NK cells (primary mouse NK cells; LRP6-deficient) | β-catenin accumulation in primary NK cells (primary mouse NK cells; WNT3A 5 nM, 24 hours, Western) | Wnt reporter activity ([1]; HEK293, TOPFlash, conditioned medium (FIG. 1E))
1 | Cc1c[nH]c(-c2cnc(NCCNc3ccc(C#N)cn3)nc2-c2ccc(Cl)cc2Cl)n1 [CHIR99021, reference compound] | no significant effect on granzyme B | strong effect on Wnt reporter gene activity |  |  |  | 
2 | WNT3A | no significant effect on granzyme B expression | a strong increase in the reporter gene activity | did not affect β-catenin accumulation | did not induce β-catenin accumulation | induced β-catenin accumulation | increased Wnt reporter activity
